row,Structure (SMILES),melting point [°C]
1,COc1ccc(OC(=O)NCc2ccc(Oc3ccccc3)cc2)cc1,89 to 91
2,Cc1ccc(OC(=O)NCCc2ccc(-c3ccccc3)cc2)cc1,172 to 174
3,O=C(NCc1ccc(-c2ccccc2)cc1)Oc1ccc(F)cc1,155 to 157
4,"O=C(NCc1ccc(Oc2ccccc2)cc1)OCC(F)(F)F [Compound No. 10, 2,2,2-Trifluoroethyl 4-phenyloxybenzylcarbamate]",145 to 148

# Results, then the compound that gave them:
row,melting point [°C],Structure (SMILES)
1,123 to 125,"O=C(NCc1ccc(-c2ccccc2)cc1)OCC(F)(F)F [Compound No. 1, 2,2,2-Trifluoroethyl 1,1′-biphenyl-4-ylmethylcarbamate]"
2,79 to 81,"O=C(NCCc1ccc(-c2ccccc2)cc1)OCC(F)(F)F [Compound No. 19, 2,2,2-Trifluoroethyl 2-(1,1′-biphenyl-4-yl)ethylcarbamate]"

# Reference: patent US7696374B2, “Arylalklcarbamate derivatives, preparation method thereof and use of same in therapeutics” (Sanofi-Aventis, priority 2003, dated 2010)
